“Also recorded” adds a separate entry of the source. Read-outs that look alike come from different tables or passages of the source.
Legend:
[1] = design: method as in ref IB; details: ref IB, cited from earlier work
[2] = Module 4 food effect study; format: in vivo, human
Protocol: Carrick Therapeutics CT7001_001, Volume 3, Module 1, Part B-1 (TNBC) […]
in a test using the whole-cell patch-clamp technique (human embryonic kidney [HEK] cells transfected with hERG), and the CT7001 IC50 in the K+ channel was determined to be greater […]
Cardiovascular toxicity potential was also studied in vivo in dogs. Oral administration of 5, 15, and 20 mg/kg CT7001 had no effect on haemodynamic parameters, ECG parameters, or body temperature in the dog, compared with control article (vehicle) administration.
Effects of CT7001 on the central nervous system (CNS [Irwin]) and respiratory systems were […]
CT7001 has low mutagenic potential. At concentrations up to the lower limit of toxicity, it induced no mutations in a five strains Ames test.
2.3.2 Current Clinical Data of CT7001
A first-in-human multi-module Phase I/II clinical study commenced in November 2017 […]
only clinical study conducted to date.
The single- and multiple-ascending dose Phase 1a part of the study (Module 1, Part A) is completed. 33 dosed patients have completed this part of Module 1 (120, 240, 480 mg and a step-down dose level of 360 mg, all taken once daily (OD), and 180 mg given twice a day (BID), all in a fasted state). […]
Module 4 evaluated the effect of food on CT7001 bioavailability in cancer patients. […]

pPolII = experiment: Immunohistochemistry H-score in paired tumor biopsies, pPolII; format: in vivo, human
Protocol: Per-protocol ctDNA samples were taken in Module 1B-1 at screening, C1D1, C2D1 and on D1 of alternating cycles from Cycle 3; in Module 2A at screening, C1D1 and at either C2D1 (240 mg) or C2D15 (360 mg) for mutational analysis[24],[33], (Supplementary Information). pPolII in lymphocytes and pPolII and pCDK1/2/3 in core needle tissue samples from patients recruited to the paired biopsy cohort were evaluated for on-target pharmacodynamic analyses. […]
pharmacodynamic effects in tumor tissue. […]
variability in H-score was observed between sections. […]
H-scores for pre-dose and on-study biopsies and summary statistics for the observed H-score when stained for pCDK1/2/3 and pPolII are shown in Supplementary Table 11. Significance was calculated using Student’s one-tailed paired t-test, where the alternative hypothesis was that on-study samples had

cytochrome P450 enzymes = test system: cytochrome P450 enzymes; design: method as in ref IB; details: followed by 3A4 and a small contribution by 2C19; ref IB; cited from earlier work
CYP2D6 = test system: CYP2D6; design: method as in ref IB; details: human microsomes; ref IB; cited from earlier work
CYP2B6 = test system: CYP2B6; design: method as in ref IB; details: human microsomes; ref IB; cited from earlier work
[3] = test system: human peripheral blood lymphocytes; design: method as in ref IB; details: ref IB; cited from earlier work
CYP3A5 = test system: CYP3A5; design: method as in ref IB; details: human microsomes; ref IB; cited from earlier work
[4] = design: method as in ref IB; details: ref IB, cited from earlier work; remark: listed apart in the source
human tumour xenograft = test system: human tumour xenograft; design: method as in ref IB; details: ref IB, cited from earlier work
[5] = design: method as in ref IB; details: dog microsomes; ref IB; cited from earlier work
[6] = design: method as in ref IB; details: ref IB; cited from earlier work

SMILES: CC(C)c1cnn2c(NCc3ccccc3)cc(NC[C@H]3CCNC[C@@H]3O)nc12 [samuraciclib, Samuraciclib]
- Oral bioavailability ([1]; dog): good oral bioavailability
- Apparent elimination half-life (T½) ([1]; dogs): 9.5 h
- Plasma clearance ([1]; dogs): high
- Volume of distribution ([1]; dogs): high volume of distribution
- Food effect on exposure or % variability [2]: no food effect was seen
- pPolII H-Score, On study, average (pPolII; Average 240mg OD patients, pre-dose 239): 208
- pPolII H-Score, On study, average (pPolII; Average 360mg OD patients, pre-dose 277): 271
- pPolII H-Score, On study, average (pPolII; Average all patients, pre-dose 258): 240
- pPolII H-Score, On study (pPolII; HR+ breast cancer, breast biopsy, 360 mg OD, pre-dose 286): 271
- pPolII H-Score, On study (pPolII; HR+ breast cancer, liver biopsy, 240 mg OD, pre-dose 243): 225
- pPolII H-Score, On study (pPolII; HR+ breast cancer, liver biopsy, 240 mg OD, pre-dose 251): 232
- pPolII H-Score, On study (pPolII; HR+ breast cancer, liver biopsy, 360 mg OD, pre-dose 271): 262
- pPolII H-Score, On study (pPolII; HR+ breast cancer, liver biopsy, 360 mg OD, pre-dose 273): 281
- pPolII H-Score, On study (pPolII; Rhabdomyosarcoma, axilla biopsy, 240 mg OD, pre-dose 223): 167
- pPolII in tumor tissue (pPolII; paired biopsy cohort): reduction of phosphorylated RNA polymerase II; also recorded: A reduction in pPolII was also seen in tumor tissue
- CYP mediated clearance (cytochrome P450 enzymes): mainly occurs via CYP2D6
- IC50 (CYP2B6): > 50 µM
- Genotoxicity in micronucleus tests [3]: Low potential for genotoxicity
- IC50 (CYP3A5): > 50 µM
- Overall turnover ([4]; human hepatocytes): low
- Phase II metabolism (e.g., glucuronidation) ([4]; mouse and human hepatocytes): No evidence
- Anti-tumour efficacy (human tumour xenograft; 100 mg/kg/day): robust efficacy
- Anti-tumour efficacy (human tumour xenograft; 30 and 50 mg/kg/day): moderate efficacy
- Intrinsic clearance [5]: intermediate
- Solubility [6]: pH-dependent solubility

Source: paper PMC10366102, “Dose escalation and expansion cohorts in patients with advanced breast cancer in a Phase I study of the CDK7-inhibitor samuraciclib” (Nature Communications, 2023)
